{
  "source": "paper PMC6718478",
  "about": "“A Comprehensive Antimicrobial Activity Evaluation of the Recombinant Microcin J25 Against the Foodborne Pathogens Salmonella and E. coli O157:H7 by Using a Matrix of Conditions” (Frontiers in Microbiology, 2019)",
  "key": {"S. Pullorum [1]": {"test_system": "S. Pullorum", "test": "Antimicrobial activity in different growth phases, viable plate counting", "assay_type": "cell-based, Salmonella Pullorum", "settings": "LB, n = 6; for time to reduction to undetectable levels: early- or late-log phase cells, plate counts at 0, 12, 24, 48 h; for time to reduction to non-detectable levels: stationary phase cells, plate counts", "description": "(§1) The effect of growth phase on the anti-Salmonella and -E. coli O157:H7 activity of recombinant MccJ25 was determined by the viable plate counting method, as described previously ([Ma et al., 2016]; [Fan et al., 2017]), with minor modifications. Cultures of the strains in the early-log phase, late-log phase and stationary phase were washed, concentrated and diluted with sterilized phosphate-buffered saline (PBS) to approximately 10^7 CFU/mL. Then, 1 mL was incubated individually in 9 mL of PBS to reach an approximate 10^6 CFU/mL final concentration. The bacterial cells were then inoculated into 5 mL of LB containing different concentrations of MccJ25 (0, 1 × MIC, 2 × MIC, and 4 × MIC). At 0, 12, 24, and 48 h post incubation, the cultures (0.1 mL) were serially diluted with PBS and plated on LB and TSA agar. The plates were incubated at 37°C overnight to count colony. Colonies were counted to determine CFU/mL. The experiment was conducted with two replicates in three independent trials."}, "IPEC-J2 cells [2]": {"test_system": "IPEC-J2 cells", "test": "Salmonella-induced damage to IPEC-J2 cells (TEER, FD4, LDH)", "assay_type": "cell-based", "settings": "2 μg/mL for 6 h, Salmonella for 2 h; n = 9", "description": "FIGURE S2 | Recombinant MccJ25 inhibited Salmonella-induced damage to IPEC-J2 cells. IPEC-J2 cells were cultured with or without recombinant MccJ25 (2 μg/mL) for 6 h in the absence or presence of Salmonella for 2 h. TEER (A), FD4 level (B), and LDH activity (C) in the IPEC-J2 cells were determined. Data are the means ± SEMs of three independent experiments, n = 9. Different superscript lowercase letters within each group indicate significant differences (P < 0.05); The asterisk denotes a significant difference in comparison with the control group (*P < 0.05, **P < 0.01)."}, "S. Pullorum [3]": {"test_system": "S. Pullorum", "test": "Antimicrobial activity in biological food products (skim milk, egg yolk, mincemeat extract)", "assay_type": "cell-based, Salmonella Pullorum", "settings": "4 × MIC, 37°C; for viable bacteria after 24 h in the three food products: SKM, SEY, SMS, data not shown; for CFU reduction after 24 h: inoculum 10^6 CFU/mL, 250 rpm, plate counts, n = 6", "description": "(§2) To further investigate the effects of recombinant MccJ25 on Salmonella and E. coli O157:H7 in different biological food products, sterile skim milk, egg yolk and mincemeat (pork) extract were collected and used as described previously with minor modifications ([Sable et al., 2000]). The skim milk, egg and mincemeat samples were purchased from a Carrefour store in Beijing. Specimens were kept on ice packs in coolers until they reached the laboratory, where they were stored at 4°C. The skim milk (SKM) and mincemeat supernatant (SMS) were autoclave sterilized at 121°C for 20 min. After autoclaving, the SKM and SMS samples were stored at 4°C for further use. The eggs were sterilized with 75% ethanol and transferred into an exceptionally clean bench to collect the egg yolk (SEY). The SEY was diluted 1:1 with sterile distilled water. Biological product samples were mixed with a final concentration of 4 × MIC of recombinant MccJ25 solution in sterile saline water (0.85%). They were then inoculated with S. Pullorum, S. […] Sterilized saline water (SSW) with the recombinant MccJ25 was utilized for comparison. This assay was performed to obtain the desired quantity of cells. The mixtures were tested after 24 h of incubation at 37°C with shaking (250 rpm). After incubation, Salmonella species and E. coli O157:H7 were serially diluted with PBS and plated on LB and TSA agar. The plates were incubated at 37°C overnight to count colony. Colonies were counted to determine CFU/mL. The experiment was conducted with two replicates in three independent trials."}, "Claudin-1": {"test_system": "Claudin-1", "test": "Tight junction protein mRNA expression in Salmonella-challenged IPEC-J2 cells, real-time PCR", "assay_type": "cell-based", "settings": "6 h with recombinant MccJ25, then Salmonella for 2 h, n = 9", "description": "(§3) IPEC-J2 cells were cultured with or without recombinant MccJ25 for 6 h and then treated with Salmonella for 2 h. Cells were collected, and relative mRNA expression was analyzed by real-time PCR. The data are the means ± SEMs of three independent experiments, n = 9. Different superscript lowercase letters within each group indicate significant differences (P < 0.05)."}, "ZO-1": {"test_system": "ZO-1", "test": "Tight junction protein mRNA expression in Salmonella-challenged IPEC-J2 cells, real-time PCR", "assay_type": "cell-based", "settings": "6 h with recombinant MccJ25, then Salmonella for 2 h, n = 9", "description": "as §3"}, "E. coli O157:H7": {"test_system": "E. coli O157:H7", "test": "Antimicrobial activity in different growth phases, viable plate counting", "assay_type": "cell-based, Escherichia coli", "settings": "4 × MIC, LB, plate counts, n = 6", "description": "as §1"}, "S. Typhimurium [4]": {"test_system": "S. Typhimurium", "test": "Antimicrobial activity in biological food products (skim milk, egg yolk, mincemeat extract)", "assay_type": "cell-based, Salmonella Typhimurium", "settings": "4 × MIC, SKM, 37°C; for viable bacteria after 24 h in the three food products: SEY, SMS, data not shown", "description": "as §2"}, "S. Pullorum [5]": {"test_system": "S. Pullorum", "test": "TEM of morphology and intracellular alteration", "assay_type": "cell-based, Salmonella Pullorum", "description": "For TEM sample preparation, (1) two milliliters of 2 × 10^6 cells of S. Pullorum broth cultured in the absence or presence of 1×, 2× and 4× MIC of the recombinant MccJ25 were incubated and collected at 1 h. (2) After that, approximately 2 × 10^6 S. Pullorum cells were incubated at 37°C for […] with the recombinant MccJ25 at 2 × MIC for 2, 3, and 4 h. They were then centrifuged at 5,000 × g for 5 min. Pretreatment of bacterial samples was conducted in the same way as the SEM treatment. Finally, the samples were placed in capsules containing embedding medium and heated at 70°C for approximately 9 h. Specimens were stained with uranyl acetate and alkaline lead citrate for 15 min. They were then observed by TEM (Model JEM-1230, JEOL, Japan)."}, "IPEC-J2 cells [6]": {"test_system": "IPEC-J2 cells", "test": "Salmonella invasion of IPEC-J2 cell monolayers", "assay_type": "cell-based", "settings": "6 h with recombinant MccJ25, Salmonella for 2 h; plate counts, n = 9", "description": "FIGURE S1 | Protective effects of recombinant MccJ25 against Salmonella invasion of IPEC-J2 cell monolayers. IPEC-J2 cells were cultured with or without recombinant MccJ25 for 6 h in the absence or presence of Salmonella for 2 h. The invasion of Salmonella in the IPEC-J2 cells was determined. Salmonella (mean CFU/ml ± SEMs) were determined by plate counts, and determined from three individual experiments. n = 9. Different superscript lowercase letters within each group indicate significant differences (P < 0.05)."}, "S. Typhimurium [7]": {"test_system": "S. Typhimurium", "test": "Antimicrobial activity in different growth phases, viable plate counting", "assay_type": "cell-based, Salmonella Typhimurium", "settings": "LB, plate counts, n = 6; for time within which bacteria were killed: early and late-log phase cells", "description": "as §1"}},
  "note": "Positions of bridges follow the written chain, without caps; N, C: chain ends. Residues, ends and D or L forms follow the SMILES beside them.",
  "data": [
    {"compound": "CC[C@H](C)[C@H](NC(=O)CNC(=O)[C@@H](NC(=O)[C@H](Cc1ccccc1)NC(=O)[C@H](Cc1ccc(O)cc1)NC(=O)[C@@H]1CCC(=O)NCC(=O)NCC(=O)N[C@@H](C)C(=O)NCC(=O)N[C@@H](Cc2c[nH]cn2)C(=O)N[C@@H](C(C)C)C(=O)N2CCC[C@H]2C(=O)N1)C(C)C)C(=O)NCC(=O)N[C@H](C(=O)N1CCC[C@H]1C(=O)N[C@H](C(=O)N[C@@H](CO)C(=O)N[C@@H](Cc1ccccc1)C(=O)N[C@@H](Cc1ccc(O)cc1)C(=O)NCC(=O)O)[C@@H](C)CC)[C@@H](C)O", "note": "[recombinant MccJ25, microcin J25] (GGAGHVPEYFVGIGTPISFYG-OH; lactam N-8 (inferred); C-terminus assumed)", "values": [
      {"measurement": "time to reduction to undetectable levels", "setting": "S. Pullorum [1]; 8 μg/mL", "value": "≤ 24", "unit": "h"},
      {"measurement": "time to reduction to undetectable levels", "setting": "S. Pullorum [1]; 4 × MIC", "value": "≤ 12", "unit": "h"},
      {"measurement": "time to reduction to non-detectable levels", "setting": "S. Pullorum [1]; 8 μg/mL", "value": "≤ 48", "unit": "h"},
      {"measurement": "time to reduction to non-detectable levels", "setting": "S. Pullorum [1]; 16 μg/mL", "value": "≤ 24", "unit": "h"},
      {"measurement": "S. Pullorum-induced decrease in TEER", "setting": "IPEC-J2 cells [2]", "value": "attenuated"},
      {"measurement": "S. Pullorum-induced increase in FD4 level", "setting": "IPEC-J2 cells [2]", "value": "attenuated"},
      {"measurement": "S. Pullorum-induced increase in LDH level", "setting": "IPEC-J2 cells [2]", "value": "attenuated"},
      {"measurement": "viable bacteria after 24 h in the three food products", "setting": "S. Pullorum [3]; inoculum 10^3 CFU/mL", "value": "no viable bacteria were detected"},
      {"measurement": "viable bacteria after 24 h in the three food products", "setting": "S. Pullorum [3]; inoculum 10^4 CFU/mL", "value": "no bacteria were detected"},
      {"measurement": "CFU reduction after 24 h", "setting": "S. Pullorum [3]; sterilized egg yolk (SEY), diluted 1:1", "value": "~8 × 10^3 CFU/mL"},
      {"measurement": "CFU reduction after 24 h", "setting": "S. Pullorum [3]; sterilized mincemeat supernatant (SMS)", "value": "~7 × 10^3 CFU/mL"},
      {"measurement": "CFU reduction after 24 h", "setting": "S. Pullorum [3]; sterilized skim milk (SKM)", "value": "approximately 10^4 CFU/mL"},
      {"measurement": "mRNA expression of Claudin-1", "setting": "Claudin-1", "value": "significantly increased"},
      {"measurement": "mRNA expression of ZO-1", "setting": "ZO-1", "value": "significantly increased"},
      {"measurement": "time to reduction to non-detectable levels", "setting": "E. coli O157:H7; early-log phase cells", "value": "≤ 12", "unit": "h"},
      {"measurement": "time to reduction to non-detectable levels", "setting": "E. coli O157:H7; late-log phase cells", "value": "≤ 24", "unit": "h"},
      {"measurement": "time to reduction to non-detectable levels", "setting": "E. coli O157:H7; stationary phase cells", "value": 48, "unit": "h"},
      {"measurement": "viable bacteria after 24 h in the three food products", "setting": "S. Typhimurium [4]; inoculum 10^3 CFU/mL", "value": "no viable bacteria were detected"},
      {"measurement": "viable bacteria after 24 h in the three food products", "setting": "S. Typhimurium [4]; inoculum 10^4 CFU/mL", "value": "no bacteria were detected"},
      {"measurement": "CFU reduction after 24 h", "setting": "S. Typhimurium [4]; SEY, and SMS, inoculum 10^6 CFU/mL, plate counts, n = 6", "value": "approximately 10^3 CFU/mL"},
      {"measurement": "cytoplasmic membrane integrity by TEM", "setting": "S. Pullorum [5]; 1, 2, or 4 × MIC for 1 h, 2 × 10^6 cells", "value": "significantly disrupted the membrane"},
      {"measurement": "morphology and intracellular alteration by TEM", "setting": "S. Pullorum [5]; 2 × MIC for 2, 3, and 4 h", "value": "deformed small septa, invisible cytoplasmic membranes, heterogeneous electron density, electron-light regions and thinned cell walls"},
      {"measurement": "S. Pullorum invasion of IPEC-J2 cells", "setting": "IPEC-J2 cells [6]", "value": "inhibited S. Pullorum invasion"},
      {"measurement": "time within which bacteria were killed", "setting": "S. Typhimurium [7]; 2 × MIC", "value": "≤ 48", "unit": "h"},
      {"measurement": "time within which bacteria were killed", "setting": "S. Typhimurium [7]; 4 × MIC", "value": "≤ 24", "unit": "h"},
      {"measurement": "time to reduction to non-detectable levels", "setting": "S. Typhimurium [7]; stationary phase cells, 4 × MIC", "value": 48, "unit": "h"}
    ]}
  ]
}
